By Kd is commonly meant a measure of binding affinity in units of concentration. Low values mean higher affinity, high ones lower affinity.

Type in all cases: binding
Assay [1] deals with T1, cypin (cytosolic PSD-95 interactor; guanine deaminase) (Rattus norvegicus, UniProt Q9WTT6).
T1 construct: gene Gda
T1 sequence (Q9WTT6 1-454): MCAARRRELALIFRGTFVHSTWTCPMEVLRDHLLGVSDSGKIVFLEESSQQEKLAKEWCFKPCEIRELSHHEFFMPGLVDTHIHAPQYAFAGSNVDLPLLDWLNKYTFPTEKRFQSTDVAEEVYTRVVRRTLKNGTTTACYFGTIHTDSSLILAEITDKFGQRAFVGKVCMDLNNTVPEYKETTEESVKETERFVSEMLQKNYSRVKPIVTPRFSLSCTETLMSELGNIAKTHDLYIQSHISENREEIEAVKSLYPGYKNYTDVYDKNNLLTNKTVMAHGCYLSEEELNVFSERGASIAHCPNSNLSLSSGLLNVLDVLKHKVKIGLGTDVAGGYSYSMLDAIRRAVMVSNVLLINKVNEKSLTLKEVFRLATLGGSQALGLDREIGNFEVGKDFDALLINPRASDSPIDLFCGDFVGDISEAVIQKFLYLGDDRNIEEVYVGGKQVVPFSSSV
In words: intrinsic tryptophan fluorescence quenching (Hill fit); also Amplex Red coupled xanthine oxidase/uricase assay.

Assay [2] addresses T1, cypin (cytosolic PSD-95 interactor; guanine deaminase). In words: intrinsic tryptophan fluorescence quenching; also NADH-coupled deaminase assay (Km […]).
Assay [3] shares this target. In words: intrinsic tryptophan fluorescence quenching; also NADH-coupled assay (Km […]) and LC-MS of deaminated product.

As to `Nc1nc2c(ncn2COCCO)c(=O)[nH]1` [acyclovir], in assay [1], binding was characterised by a dissociation constant (Kd) of 227 µM. With `Nc1nc2nc[nH]c2c(=O)[nH]1` [guanine], binding in assay [2] was put at a Kd of 0.598 µM. `CC(C)[C@H](N)C(=O)OCCOCn1cnc2c(=O)[nH]c(N)nc21` [valacyclovir] returned a dissociation constant (Kd) in assay [3] of 74.4 µM.

The record behind these values is article PMC11694556 (Proteins, 2024).
